Assays:
L-type calcium channel = L-type calcium channel activity well-plate assay (IMR-32 cells, Ca-4 dye, FlexStation); assay type: cell-based, human
Method: Cell Culture: IMR-32 (human neuroblastoma) cells were obtained from The American Type Culture Collection. The cells were maintained in MEM supplemented with 10% fetal bovine serum, 2 mM of L-glutamine, 100 IU/ml of penicillin, 50 μg/ml of streptomycin, 1% of sodium pyruvate, 1% of sodium bicarbonate and 1% of non-essential amino acid. […] Culture medium was changed every two days and cells were recultivated when they reached 70-80% confluent.
Assay: IMR-32 cells were seeded on a Microtest 96-well Assay Plate (BD FALCON™) at a density of 200,000 cells/well in 200 μl culture medium for overnight. The culture medium was removed, and replaced by 120 μl Ca-4 dye (MDS Analytical Technologies, Sunnyvale, Calif.) in HBSS (1× Hank's Balanced Salt solution plus 20 mM HEPES, pH 7.4) containing 2 mM probenecid. Cells were then incubated for 1 hour at 37° in incubator. Testing compounds were diluted from 5 μM-50 μM in HBSS, and 40 μl were added in cells before assay. […] The inhibition of L-type calcium channel activity by compounds was then calculated.

hERG potassium channel = hERG potassium channel (Homo sapiens, UniProt Q12809); assay: hERG screening assay (PatchXpress patch clamp, CHO cells)
hERG potassium channel, sequence (Q12809 whole entry): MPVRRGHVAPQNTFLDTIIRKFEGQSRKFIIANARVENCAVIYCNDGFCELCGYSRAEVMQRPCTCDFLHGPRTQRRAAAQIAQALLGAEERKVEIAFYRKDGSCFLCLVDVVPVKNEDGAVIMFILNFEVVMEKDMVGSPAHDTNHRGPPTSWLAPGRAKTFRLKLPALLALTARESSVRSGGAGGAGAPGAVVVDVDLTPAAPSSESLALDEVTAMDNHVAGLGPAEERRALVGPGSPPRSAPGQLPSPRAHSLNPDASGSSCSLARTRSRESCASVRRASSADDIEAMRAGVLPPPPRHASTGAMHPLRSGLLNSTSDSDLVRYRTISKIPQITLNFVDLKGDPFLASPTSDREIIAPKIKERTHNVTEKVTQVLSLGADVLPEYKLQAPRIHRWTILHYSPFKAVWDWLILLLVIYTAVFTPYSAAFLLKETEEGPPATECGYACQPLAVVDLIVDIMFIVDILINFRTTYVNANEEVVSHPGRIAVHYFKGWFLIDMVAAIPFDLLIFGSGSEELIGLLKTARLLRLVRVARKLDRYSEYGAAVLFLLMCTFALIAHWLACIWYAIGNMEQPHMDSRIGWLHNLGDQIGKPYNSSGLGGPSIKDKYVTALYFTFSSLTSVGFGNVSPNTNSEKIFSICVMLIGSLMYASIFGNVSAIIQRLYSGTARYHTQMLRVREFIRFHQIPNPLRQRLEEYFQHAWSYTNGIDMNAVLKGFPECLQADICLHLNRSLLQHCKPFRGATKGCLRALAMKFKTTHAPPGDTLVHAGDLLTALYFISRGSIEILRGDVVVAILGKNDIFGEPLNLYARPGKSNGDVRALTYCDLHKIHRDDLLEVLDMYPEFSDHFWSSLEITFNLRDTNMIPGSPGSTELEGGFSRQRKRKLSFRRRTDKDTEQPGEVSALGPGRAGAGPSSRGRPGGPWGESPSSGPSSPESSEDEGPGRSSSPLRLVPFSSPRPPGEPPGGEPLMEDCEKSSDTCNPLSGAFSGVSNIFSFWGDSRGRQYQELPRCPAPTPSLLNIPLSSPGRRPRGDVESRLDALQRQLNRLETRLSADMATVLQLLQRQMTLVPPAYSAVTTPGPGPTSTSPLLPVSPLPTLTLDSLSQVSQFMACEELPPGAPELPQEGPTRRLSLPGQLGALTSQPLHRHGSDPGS
Method: Compounds were screened to test their activity in blocking the hERG potassium channel. The hERG channel is heterologously expressed in a CHO (Chinese Hamster Ovary) cell line. Cells are maintained with standard tissue culture procedures and stable channel expression is maintained with 500 μg/ml G418 in the culture medium. Cells are harvested for testing on the PatchXpress automated patch clamp with Acctumax (Innovative Cell Technologies, San Diego, Calif.) to isolate single cells.
The following solutions are used for electrophysiological recordings. The external solution contains: 2 mM CaCl2; 2 mM MgCl2; 4 mM KCl; 150 mM NaCl; 10 mM Glucose; 10 mM HEPES (pH 7.4 with 1M NaOH, osmolarity).
hERG channels are activated when the voltage is stepped to +20 mV from the −80 mV holding potential (see FIG. 3). During a 5 second step at +20 mV, the channels activate and then largely inactivate, so the currents are relatively small. Upon returning to −50 mV from +20 mV, hERG currents transiently become much larger as inactivation is rapidly removed and then the channel closes. The first step to −50 mV for 300 ms is used as a baseline for measuring the peak amplitude during the step to −50 mV after channel activation. The peak current at −50 mV is measured both under control conditions and after addition of compound.
All compounds are prepared as 10 mM DMSO stocks in glass vials. Stock solutions are mixed by vigorous vortexing and sonication for about 2 minutes at room temperature. For testing, compounds are diluted in glass vials using an intermediate dilution step in pure DMSO and then further diluted to working concentrations in external solution. Dilutions are prepared no longer than 20 minutes before use.
After achieving the whole-cell configuration, cells are monitored for 90 seconds to assess stability and washed with external solution for 66 seconds. The voltage protocol described above is then applied to the cells every 12 seconds and throughout the whole procedure. Only cells with stable recording parameters and meeting specified health criteria are allowed to enter the compound addition procedure.
External solution containing 0.1% DMSO (vehicle) is applied to the cells first to establish the control peak current amplitude. After allowing the current to stabilize for 3 to 5 minutes, 1 μM and then 10 μM test compounds are applied. Each compound concentration is added 4 times and cells are kept in test solution until the effect of the compound reaches steady state or for a maximum of 12 minutes. […] Washout in the external solution compartment is performed until the recovery of the current reaches steady state. Data are analyzed using DataXpress, Clampfit (Molecular Devices, Inc., Sunnyvale) and Origin 7 (Originlab Corp.)

SMILES | CaL Plate Assay % blk (1 μM test cmpd) (L-type calcium channel) [%] | CaL Plate Assay % blk (10 μM test cmpd) (L-type calcium channel) [%] | hERG Patch Clamp hERG % blk (1 μM test cmpd) (hERG potassium channel) [%] | hERG Patch Clamp hERG % blk (10 μM test cmpd) (hERG potassium channel) [%]
CC1=C(C(=O)OCc2ccccc2)C(c2csc3ccccc23)n2nnnc2N1 (stereo not shown) [PT-042, benzyl 7-(benzo[b]thiophen-3-yl)-5-methyl-4,7-dihydrotetrazolo[1,5-a]pyrimidine-6-carboxylate] | 0 | 16 | 11 | 52.5
CCOC(=O)C1=C(C(C)C)NC(C(C)C)=C(C(=O)OCC)C1c1ccc(Br)s1 [PT-183, diethyl 4-(5-bromothiophen-2-yl)-2,6-diisopropyl-1,4-dihydropyridine-3,5-dicarboxylate] | 0 | 16 | 10 | 10
CC1=C(C(=O)OCc2ccccc2)C(c2cccc3ccccc23)n2nnnc2N1 (stereo not shown) [PT-027, benzyl 5-methyl-7-(naphthalen-1-yl)-4,7-dihydrotetrazolo[1,5-a]pyrimidine-6-carboxylate] | 0 | 0 | 14 | 64.5
CC1=C(C(=O)OC2CCc3ccccc32)C(c2cccc3ccccc23)n2nnnc2N1 (stereo not shown) [PT-062, 2,3-dihydro-1H-inden-1-yl 5-methyl-7-(naphthalen-1-yl)-4,7-dihydrotetrazolo[1,5-a]pyrimidine-6-carboxylate] | 51 | – | – | 14
CCOC(=O)C1=C(C)Nc2nnnn2C1c1cccc2ccccc12 (stereo not shown) [PT-192, ethyl 5-methyl-7-(naphthalen-1-yl)-4,7-dihydrotetrazolo[1,5-a]pyrimidine-6-carboxylate] | 9 | 12 | 23 | 29
CC1=C(C(=O)OCc2ccccc2)C(c2sc3ccccc3c2C)n2nnnc2N1 (stereo not shown) [PT-044, benzyl 5-methyl-7-(3-methylbenzo[b]thiophen-2-yl)-4,7-dihydrotetrazolo[1,5-a]pyrimidine-6-carboxylate] | 7 | 35 | 16.5 | 40
N#CC1=C(N)OC2=C(C(=O)CCC2)C1c1ccc(Br)cc1 (stereo not shown) [PT-096, 2-amino-4-(4-bromophenyl)-5-oxo-5,6,7,8-tetrahydro-4H-chromene-3-carbonitrile] | 8 | 39 | 15 | 48
N#CC1=C(N)OC2=C(C(=O)CC(c3ccccc3)C2)C1c1ccco1 (stereo not shown) [PT-104, 2-amino-4-(furan-2-yl)-5-oxo-7-phenyl-5,6,7,8-tetrahydro-4H-chromene-3-carbonitrile] | 0 | 27 | 18 | 46
CC1=C(C(=O)OCc2ccccc2)C(c2cccc3ccccc23)n2nnnc2N1C (stereo not shown) [PT-195, benzyl 4,5-dimethyl-7-(naphthalen-1-yl)-4,7-dihydrotetrazolo[1,5-a]pyrimidine-6-carboxylate] | 0 | 88 | 12.5 | 49
CCOC(=O)C1=C(C)NC(C)=C(C(=O)OCC)C1c1cccs1 [PT-111, diethyl 2,6-dimethyl-4-(thiophen-2-yl)-1,4-dihydropyridine-3,5-dicarboxylate] | 75 | 79 | 11.5 | 48.5
CCOC(=O)C1=C(CC)NC(CC)=C(C(=O)OCC)C1c1ccc(Br)s1 [PT-181, diethyl 4-(5-bromothiophen-2-yl)-2,6-diethyl-1,4-dihydropyridine-3,5-dicarboxylate] | 8 | 61 | 10.5 | 73
CC1=C(C(=O)OCc2ccccc2)C(c2c3ccccc3cc3ccccc23)n2nnnc2N1 (stereo not shown) [PT-039, benzyl 7-(anthracen-9-yl)-5-methyl-4,7-dihydrotetrazolo[1,5-a]pyrimidine-6-carboxylate] | 2 | 0 | 10 | 27.5
CCOC(=O)C1=C(C)NC(C)=C(C(=O)OCC)C1c1sc2ccccc2c1C [PT-116, diethyl 2,6-dimethyl-4-(3-methylbenzo[b]thiophen-2-yl)-1,4-dihydropyridine-3,5-dicarboxylate] | 6 | 32 | 22.9 | 66
CCOC(=O)C1=C(C)NC(C)=C(C(=O)OCC)C1c1ccc(CC)s1 [PT-113, diethyl 4-(5-ethylthiophen-2-yl)-2,6-dimethyl-1,4-dihydropyridine-3,5-dicarboxylate] | 18 | 93 | 11 | 57.5
N#CC1=C(N)OC2=C(C(=O)CC(c3ccccc3)C2)C1c1cccs1 (stereo not shown) [PT-101, 2-amino-5-oxo-7-phenyl-4-(thiophen-2-yl)-5,6,7,8-tetrahydro-4H-chromene-3-carbonitrile] | 6 | 47 | 19 | 67.5
CC1=C(C(=O)NCc2ccccc2)C(c2ccsc2)C2=C(CCCC2=O)N1 (stereo not shown) [PT-178, N-benzyl-2-methyl-5-oxo-4-(thiophen-3-yl)-1,4,5,6,7,8-hexahydroquinoline-3-carboxamide] | 10 | 2 | 11.5 | 30
CCOC(=O)C1=C(C)NC2=C(C(=O)CCC2)C1c1ccco1 (stereo not shown) [PT-153, ethyl 4-(furan-2-yl)-2-methyl-5-oxo-1,4,5,6,7,8-hexahydroquinoline-3-carboxylate] | 3 | 44 | 10.5 | 13.5
CC1=C(C(=O)N2CCC(c3ccc(C(=O)O)cc3)CC2)C(c2cccc3ccccc23)C2=C(CCCC2=O)N1 (stereo not shown) [PT-173, 4-(1-(2-methyl-4-(naphthalen-1-yl)-5-oxo-1,4,5,6,7,8-hexahydroquinoline-3-carbonyl)piperidin-4-yl)benzoic acid] | 0 | 26 | 12 | 37
CC1=C(C(=O)O[C@@H](C)c2ccccc2)C(c2cccc3ccccc23)n2nnnc2N1 (stereo partly drawn) [PT-048, (S)-1-phenylethyl 5-methyl-7-(naphthalen-1-yl)-4,7-dihydrotetrazolo[1,5-a]pyrimidine-6-carboxylate] | 0 | 74 | – | –
CCOC(=O)C1=C(C)Nc2nc(C#N)c(C#N)n2C1c1cccc2ccccc12 (stereo not shown) [PT-194, ethyl 2,3-dicyano-7-methyl-5-(naphthalen-1-yl)-5,8-dihydroimidazo[1,2-a]pyrimidine-6-carboxylate] | 21 | 61 | 25 | 91
CCOC(=O)C1=C(C)NC(C)=C(C(=O)OCC)C1c1csc2ccccc12 [PT-115, diethyl 4-(benzo[b]thiophen-3-yl)-2,6-dimethyl-1,4-dihydropyridine-3,5-dicarboxylate] | 52 | 65 | – | –
CC1=C(C(=O)OC(C)C)C(c2ccc3ccccc3c2)C2=C(CCCC2=O)N1 (stereo not shown) [PT-157, isopropyl 2-methyl-4-(naphthalen-2-yl)-5-oxo-1,4,5,6,7,8-hexahydroquinoline-3-carboxylate] | 3 | 43 | – | –
CC1=C(C(=O)OC(C)C)C(c2cccc3ccccc23)C(C(=O)OC(C)C)=C(C)N1 [PT-123, diisopropyl 2,6-dimethyl-4-(naphthalen-1-yl)-1,4-dihydropyridine-3,5-dicarboxylate] | 59 | 92 | 10 | 30.5
CC1=C(C(=O)NCCCCc2ccccc2)C(c2ccsc2)C2=C(CCCC2=O)N1 (stereo not shown) [PT-164, 2-methyl-5-oxo-N-(4-phenylbutyl)-4-(thiophen-3-yl)-1,4,5,6,7,8-hexahydroquinoline-3-carboxamide] | 20 | 77 | – | –
CCOC(=O)C1=C(C)NC(C)=C(C(=O)OCC)C1c1ccc(CC)o1 [PT-121, diethyl 4-(5-ethylfuran-2-yl)-2,6-dimethyl-1,4-dihydropyridine-3,5-dicarboxylate] | 35 | 72 | – | –

— patent publication US20090181986A1, “SUBSTITUTED HETEROCYCLIC COMPOUNDS” (priority 2007, published 2009)
